The values below come from patent US6534524B1, “Indazole compounds and pharmaceutical compositions for inhibiting protein kinases, and methods for their use” (Agouron Pharmaceuticals, Inc., priority 1999, dated 2003).

Where two headings read alike, the source gives them in different places.

Series [1] addresses unphosphorylated VEGF-R2Δ50 (FLVK) (Homo sapiens, UniProt P35968, DEL940-989/E990V). Description: VEGF-R2 coupled spectrophotometric assay, unphosphorylated VEGF-R2Δ50 (FLVK). Particulars: FLVK Ki, Table 1.
In series [2] the test system is human umbilical vein endothelial cells (HUVEC). Put plainly: HUVEC proliferation assay (VEGF-stimulated, MTT). In kind it is cell-based. The settings on record: Homo sapiens, HUVEC, + albumin; read-out: HUVEC + albumin IC50.
A short description of series [3]: Determination of inhibitor concentration in mouse plasma after intraperitoneal and oral dosing. The series is classed as in vivo. Particulars: PO. The protocol:
Blood collection was via ocular bleed at 0.5, 1, 4 hr with the final time point, 7 hour, via intracardiac puncture. The blood was centrifuged to collect plasma, which was then stored at −80° C. until analysis. Samples were prepared for analysis using an internal standard and sodium hydroxide. After vortexing, ethyl acetate was added and mixed for 15-20 minutes at ambient temperature. […] The samples were then analyzed via HPLC or LC-MS. Compound levels were quantitated by generating a standard curve of known compound concentration in mouse plasma.

Where [4] appears, read: 25 mg/kg, vehicle PEG400:H2O pH 2.3 30:70.
Where [5] appears, read: female, 25 mg/kg, vehicle PEG400:H2O pH 2.3 30:70, read-out: Cmin (7 hr conc.).
[6] abbreviates: female, 8 mg/kg, vehicle 0.5% CMC.
Where [7] appears, read: female, 8 mg/kg, vehicle 0.5% CMC, read-out: Cmax.
Where [8] appears, read: female, 8 mg/kg, vehicle 0.5% CMC, read-out: Cmin (7 hr conc.).
Where [9] appears, read: female, 25 mg/kg, vehicle 0.5% CMC.
Where [10] appears, read: female, 25 mg/kg, vehicle 0.5% CMC, read-out: Cmax.
Where [11] appears, read: female, 25 mg/kg, vehicle 0.5% CMC, read-out: Cmin (7 hr conc.).
Where [12] appears, read: female, 40 mg/kg, vehicle 0.5% CMC.
The mark [13] stands for this setting: female, 40 mg/kg, vehicle 0.5% CMC, read-out: Cmax.
The mark [14] stands for this setting: female, 40 mg/kg, vehicle 0.5% CMC, read-out: Cmin (7 hr conc.).
Setting [15] is: female, 200 mg/kg, vehicle 0.5% CMC.
Setting [16] is: female, 200 mg/kg, vehicle 0.5% CMC, read-out: Cmax.
Where [17] appears, read: female, 200 mg/kg, vehicle 0.5% CMC, read-out: Cmin (7 hr conc.).

Chain of unphosphorylated VEGF-R2Δ50 (FLVK) (P35968 with tags, fused parts or gaps DEL940-989/E990V limits assumed): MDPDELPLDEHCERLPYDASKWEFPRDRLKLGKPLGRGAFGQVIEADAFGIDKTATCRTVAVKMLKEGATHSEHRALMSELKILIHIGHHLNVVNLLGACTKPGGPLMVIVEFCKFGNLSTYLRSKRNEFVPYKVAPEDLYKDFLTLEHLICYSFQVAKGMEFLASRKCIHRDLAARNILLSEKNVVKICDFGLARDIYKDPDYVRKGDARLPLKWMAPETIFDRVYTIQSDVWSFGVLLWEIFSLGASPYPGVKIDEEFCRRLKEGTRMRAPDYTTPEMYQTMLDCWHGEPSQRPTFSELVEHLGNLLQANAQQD

Regarding `COc1cc(-c2ccc3c(-c4cc5ccccc5[nH]4)n[nH]c3c2)ccc1O` [Example 2(d), 3-(1H-Indol-2-yl)-6-(3-methoxy-4-hydroxy-phenyl)-1H-indazole], affinity in series [1] was put at a Ki of 3.7 nM.
For the molecule `Oc1ccc(-c2ccc3c(-c4cc5ccccc5o4)n[nH]c3c2)cc1OCc1ccccc1` [Example 2(e), 3-(Benzofuran-2-yl)-6-(3-benzyloxy-4-hydroxy-phenyl)-1H-indazole], affinity in series [1] was put at a Ki of 40 nM.
The same measure, in the same setting: as for `Cc1cnc(C(=O)Nc2cccc(Oc3ccc4c(/C=C/c5ccccc5)n[nH]c4c3)c2)s1` [Example 5(a), 5-Methyl-thiazole-2-carboxylic Acid {3-(3-Styryl-1H-indazol-6-yloxy)-phenyl]-amide], the figure is 0.03 nM.
In the case of `COCOc1ccc(Oc2ccc3c(/C=C/c4ccccc4)n[nH]c3c2)cc1` [Example 8(b), 3-(E-Styryl)-6-[4-(methoxymethoxy)phenoxy]-1H-indazole], affinity in series [1] was put at a Ki of 72 nM.
In the case of `Oc1ccc(Oc2ccc3c(/C=C/c4ccccc4)n[nH]c3c2)cc1` [Example 9(b), 3-(E-Styryl)-6-[4-hydroxyphenoxy]-1H-indazole], the Ki (as a rule, the equilibrium dissociation constant of an inhibitor or competing ligand from its target) in series [1] turned out to be 24 nM.
In turn, `CN(c1cccc(NC(=O)OCc2ccccc2)c1)c1ccc2c(/C=C/c3ccccc3)n[nH]c2c1` [Example 12(c), {3-[Methyl-(3-styryl-1H-indazol-6-yl)-amino]-phenyl}-carbamic Acid Benzyl Ester] registered a Ki in series [1] of 1.6 nM.
`CN(c1ccccc1)c1ccc2c(/C=C/c3ccccc3)n[nH]c2c1` [Example 14, Methyl-phenyl-(3-styryl-1H-indazol-6-yl)-amine] had a Ki in series [1] of 15 nM.
Turning to `CN(c1cccc(NC(=O)c2cccc(C(F)(F)F)c2)c1)c1ccc2c(/C=C/c3ccc4c(c3)OCO4)n[nH]c2c1` [Example 16(d), N-(3-{[3-(2-Benzo[1,3]dioxol-5-yl-vinyl)-1H-indazol-6-yl]-methyl-amino}-phenyl)-3-trifluoromethyl-benzamide], in series [1], the inhibition constant (Ki) stood at 0.43 nM.
On the same count and under the same terms, as for `CC(=O)c1cccc(C(=O)Nc2cccc(N(C)c3ccc4c(/C=C/c5ccc6c(c5)OCO6)n[nH]c4c3)c2)c1` [Example 16(e), 3-Acetyl-N-(3-{[3-(2-benzo[1,3]dioxol-5-yl-vinyl)-1H-indazol-6-yl]-methyl-amino}-phenyl)-benzamide], the figure is 1.3 nM; as for `Nc1cccc(C(=O)c2ccc3c(/C=C/c4ccccc4)n[nH]c3c2)c1` [Example 18, (3-Amino-phenyl)-(3-styryl-1H-indazol-6-yl)-methanone], 12.5 nM.
In series [1], `O=C(c1cccc(NC(=O)c2cc(Cl)ccn2)c1)c1ccc2c(/C=C/c3ccccc3)n[nH]c2c1` [Example 19(n), 6-[3-(4-Chloropyridin-2-ylcarboxamido)benzoyl]-3-E-styryl-1H-indazole] returned a Ki of 0.54 nM.
On the same count and under the same terms, as for `CNC(C(=O)Nc1cccc(C(=O)c2ccc3c(/C=C/c4ccccc4)n[nH]c3c2)c1)c1ccccc1` (stereo not shown) [Example 19(p), 6-[3-(2-Methylamino-2-phenylacetamido)benzoyl]-3-E-styryl-1H-indazole], the figure is 1.5 nM; as for `C=C(c1cccc(N)c1)c1ccc2c(/C=C/c3ccccc3)n[nH]c2c1` [Example 21, 6-(1-(3-Aminophenyl)-vinyl)-3-styryl-1H-indazole], 4.6 nM.
Still for that read-out and setting: as for `C=C(c1cccc(NC(=O)OCc2ccccc2)c1)c1ccc2c(/C=C/c3ccccc3)n[nH]c2c1` [Example 22(c)], the figure is 0.64 nM.
Turning to `CN(O)C(=O)c1ccccc1Sc1ccc2c(/C=C/c3ccccn3)n[nH]c2c1` [Example 35(o), 6-[2-(N-Hydroxy-N-methylcarbamoyl)phenylsulfanyl]-3-E-[2-(pyridin-2-yl)ethenyl]-1H-indazole], the IC50 (in general, the midpoint of a concentration-inhibition curve) in series [2] is over 100 nM. Further, in series [3] (setting [4]), the AUClast came out at 683 ng·h/mL; the Cmax (in general, the highest concentration seen after dosing) amounted to 486 ng/mL; the “plasma half-life (T1/2)” value came to 1.0 h. Besides, the concentration at 7 h in series [3] (setting [5]) is 3 ng/mL.
For the molecule `O=C(NCc1ccncc1)c1ccccc1Sc1ccc2c(/C=C/c3ccccn3)n[nH]c2c1` [Example 35(p), 6-[2-((Pyrid-4-yl)methylcarbamoyl)phenylsulfanyl]-3-E-[2-(pyridin-2-yl)ethenyl]-1H-indazole], the IC50 in series [2] is over 30 nM. Besides, in series [3] (setting [4]), the AUClast was determined as 1435 ng·h/mL and the “plasma half-life (T1/2)” value stood at 1.3 h. In addition, in series [3] (setting [5]), the concentration at 7 h is 5 ng/mL.
Take `CC(C)COC(=O)Nc1cccc(C(=O)c2ccc3c(/C=C/c4ccccn4)n[nH]c3c2)c1` [Example 41(y)]: in series [3] (setting [4]), the AUClast entry is reported as “Blq”, the peak concentration (Cmax) entry is on record as “Blq”, the “Cmin (7 hr conc.)” value is given as “blq” and the “plasma half-life (T1/2)” value is given as “blq”.
In the case of `Cc1cc(C(=O)Nc2cc(Nc3ccc4c(/C=C/c5ccccn5)n[nH]c4c3)c(F)cc2C)n(C)n1` [Example 48(b), 6N-(5-((1,3-Dimethyl-1H-pyrazol-5-yl)carboxanddo)-2-fluoro-4-methylphenyl)aminol-3-E-[2-(pyridin-2-yl)ethenyl]-1H-indazole], in series [2], the IC50 is about 8 nM. For the same molecule, in series [3] (setting [4]), the AUClast amounted to 2191 ng·h/mL and the “plasma half-life (T1/2)” value amounted to 4 h. Moreover, the concentration at 7 h in series [3] (setting [5]) came to 136 ng/mL.
With `Cc1cc(C(=O)Nc2cc(Nc3ccc4c(/C=C/c5ccccn5)n[nH]c4c3)ccc2C)n(C)n1` [Example 49(b), 6-[N-(3-((1,3-Dimethyl-1H-pyrazol-5-yl)carboxamido)-4-methylphenyl)amino]-3-E-[2-(pyridin-2-yl)ethenyl]-1H-indazole], in series [2], the IC50 is about 10 nM. Besides, in series [3] (setting [4]), the AUClast came out at 33750 ng·h/mL and the Cmax was 5000 ng/mL. In series [3] (setting [5]), the concentration at 7 h came out at 5000 ng/mL.
For `CCn1nc(C)cc1C(=O)Nc1cccc(C(=O)c2ccc3c(/C=C/c4ccccn4)n[nH]c3c2)c1.Cl` [Example 59(a), 6-[3-((1-Ethyl-3-methyl-1H-pyrazol-5-yl)carboxamido)benzoyl]-3-E-[2-(pyridin-2-yl)ethenyl]-1H-indazole Hydrochloride], the “plasma half-life (T1/2)” value in series [3] (8 mg/kg, vehicle 0.5% CMC) is 1.5 h; in series [3] (40 mg/kg, vehicle 0.5% CMC) it was 2.4 h; in series [3] (200 mg/kg, vehicle 0.5% CMC), 9.4 h. In addition, the AUC(0-t) (as a rule, the area under the concentration-time curve up to a stated or last time point) is 7710 ng·h/mL in series [3] (setting [6]), 50800 ng·h/mL in series [3] (setting [9]), 57200 ng·h/mL in series [3] (setting [12]) and 156000 ng·h/mL in series [3] (setting [15]). Besides, the maximum concentration (Cmax) in series [3] (setting [7]) came to 2490 ng/mL; in series [3] (setting [10]) it was 15900 ng/mL; in series [3] (setting [13]) it was 13800 ng/mL; in series [3] (setting [16]), 30000 ng/mL. Further, the concentration at 7 h worked out at 122 ng/mL in series [3] (setting [8]), 1200 ng/mL in series [3] (setting [11]), 1880 ng/mL in series [3] (setting [14]) and 12100 ng/mL in series [3] (setting [17]).
Molecule `Cc1cc(C(=O)Nc2cccc(C(=O)c3ccc4c(/C=C/c5ccccn5)n[nH]c4c3)c2)n(C)n1.Cl` [Example 59(b), 6-[3-((1,3-Dimethyl-1H-pyrazol-5-yl)carboxamido)benzoyl]-3-E-[2-(pyridin-2-yl)ethenyl]-1H-indazole Hydrochloride] displayed an AUC(0-t) in series [3] (female, 50 mg/kg, vehicle CMC) of 276000 ng·h/mL. The concentration at 7 hr in series [3] (female, 50 mg/kg, vehicle CMC, read-out: Cmin (7 hr conc.)) was determined as 26900 ng/mL.
As for `CCn1nc(C)cc1C(=O)Nc1cc(Nc2ccc3c(/C=C/c4ccccn4)n[nH]c3c2)c(F)cc1C.Cl` [Example 59(c), 6-[N-(5-((1-Ethyl-3-methyl-1H-pyrazol-5-yl)carboxamido)-2-fluoro-4-methylphenyl)amino]-3-E-[2-(pyridin-2-yl)ethenyl]-1H-indazole Hydrochloride], the AUC(0-t) in series [3] (female, 25 mg/kg, vehicle CMC) worked out at 327000 ng·h/mL. In addition, in series [3] (female, 25 mg/kg, vehicle CMC, read-out: Cmax), the Cmax was determined as 50000 ng/mL.
With `Cc1cc(C(=O)Nc2cc(Nc3ccc4c(/C=C/c5ccccn5)n[nH]c4c3)ccc2F)n(C)n1.Cl` [Example 59(d), 6-[N-(3-((1,3-Dimethyl-1H-pyrazol-5-yl)carboxamido)4-fluoro-phenyl)amino]-3-E-[2-(pyridin-2-yl)ethenyl]-1H-indazole Hydrochloride], the AUC(0-t) in series [3] (setting [6]) was over 24700 ng·h/mL; in series [3] (setting [12]), over 32300 ng·h/mL; in series [3] (setting [15]) it was over 123000 ng·h/mL. Besides, the Cmax was over 5000 ng/mL in series [3] (setting [7]), over 5000 ng/mL in series [3] (setting [13]) and over 20000 ng/mL in series [3] (setting [16]). Moreover, the concentration at 7 h was 1900 ng/mL in series [3] (setting [8]), 4140 ng/mL in series [3] (setting [14]) and 12700 ng/mL in series [3] (setting [17]).
Regarding `CCn1nc(C)cc1C(=O)Nc1cccc(Oc2ccc3c(/C=C/c4ccccn4)n[nH]c3c2)c1.Cl` [Example 59(e), 6-[3-((1-Ethyl-3-methyl-1H-pyrazol-5-yl)carboxamido)phenoxy]-3-E-[2-(pyridin-2-yl)ethenyl]-1H-indazole Hydrochloride], the “plasma half-life (T1/2)” value in series [3] (25 mg/kg, vehicle 0.5% CMC) came out at 21 h. Moreover, in series [3] (setting [9]), the AUC(0-t) was determined as 12500 ng·h/mL. Besides, the Cmax in series [3] (setting [10]) is 28800 ng/mL. The concentration at 7 h in series [3] (setting [11]) is 2140 ng/mL.
